Reference: PubChem BioAssay (NCI)
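How tested: cells in 96-well plates exposed to compound for 48 hours at five concentrations. TGI denotes the concentration required for complete inhibition of growth.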 *1 amine or outer side, *2 acyl side, *3 side chain or, on linkers, in order; H or OH if unused. Where a SMILES comes first, the peptide text is derived from it. Bridges are numbered along the chain shown (N, C = ends). Roman numbers before positions name the chains, in order. [ ]: non-standard residue; d: D form. The star is where a group is joined. ξ: configuration not given here. X54 = N=C(N)NCCC[C@@H](NC(=N)CCCCCCC(=N)N[C@H](CCCNC(=N)N)C(=O)[*:2])C(=O)[*:1]; dIgl = N[C@@H](C(=O)O)C1Cc2ccccc2C1; Hyp = O=C(O)[C@@H]1C[C@@H](O)CN1; ξIgl = NC(C(=O)O)C1Cc2ccccc2C1; ξOic = O=C(O)C1CC2CCCCC2N1; ξR = N=C(N)NCCCC(N)C(=O)O; Boc = CC(C)(C)OC(=O)*; ξP = O=C(O)C1CCCN1; ξS = NC(CO)C(=O)O

Experiments:
Assay in all cases: inhibition of tumour cell growth, NCI panel, 48 h
A549 NSCLC = tested on: A549 NSCLC
EKVX NSCLC = tested on: EKVX NSCLC
HCT-15 colon = tested on: HCT-15 colon
K-562 leukemia = tested on: K-562 leukemia
MDA-MB-435 = tested on: MDA-MB-435
NCI-H23 lung = tested on: NCI-H23 lung
NCI-H522 lung = tested on: NCI-H522 lung
RXF 393 renal = tested on: RXF 393 renal
SNB-19 CNS = tested on: SNB-19 CNS
T-47D breast = tested on: T-47D breast

For `CC(C)(C)COC(=O)C(C)(C)NC(=O)C(CC(=O)OCc1ccccc1)NC(=O)OCc1ccccc1` (stereo not given), the TGI (A549 NSCLC) was > 100 µM, the TGI (EKVX NSCLC) was > 100 µM and the TGI (HCT-15 colon) was 69.1 µM. The TGI (K-562 leukemia) was > 100 µM, the TGI (MDA-MB-435) was 89.9 µM and the TGI (NCI-H23 lung) was > 100 µM. The TGI (NCI-H522 lung) was > 100 µM, the TGI (RXF 393 renal) was > 100 µM and the TGI (SNB-19 CNS) was 75.7 µM. For the same compound, the TGI (T-47D breast) was 60.2 µM.

`CC(C)=CC1C(C(=O)Oc2ccccc2C(C)C)C1(C)C` (stereo not given) was tested, and the TGI (A549 NSCLC) was > 100 µM, the TGI (EKVX NSCLC) was 36.5 µM and the TGI (HCT-15 colon) was 53.1 µM. For the same compound, the TGI (K-562 leukemia) was 83.8 µM, the TGI (MDA-MB-435) was > 100 µM and the TGI (NCI-H23 lung) was 65.4 µM. The TGI (NCI-H522 lung) was 35.5 µM, the TGI (RXF 393 renal) was 33.5 µM and the TGI (SNB-19 CNS) was > 100 µM. For the same compound, the TGI (T-47D breast) was 50.3 µM.

In the case of `Cc1nnc(N)nc1/C=C\c1ccc(Cl)cc1Cl`, the TGI (A549 NSCLC) is reported as > 100 µM, the TGI (EKVX NSCLC) is reported as > 100 µM and the TGI (HCT-15 colon) is reported as > 100 µM. The TGI (K-562 leukemia) was > 100 µM, the TGI (MDA-MB-435) was > 100 µM and the TGI (NCI-H23 lung) was > 100 µM. The TGI (NCI-H522 lung) was 57.5 µM, the TGI (RXF 393 renal) was > 100 µM and the TGI (SNB-19 CNS) was > 100 µM. The TGI (T-47D breast) was > 100 µM.

Compound `N[C@H]1c2c(Br)sc(Br)c2C(=O)[C@H]1O` has a TGI (A549 NSCLC) of 70.1 µM, a TGI (EKVX NSCLC) of 30.2 µM and a TGI (HCT-15 colon) of 24.3 µM. It also gave a TGI (K-562 leukemia) of 15.2 µM, a TGI (MDA-MB-435) of 36.7 µM and a TGI (NCI-H23 lung) of 17.5 µM. For the same compound, the TGI (NCI-H522 lung) was 8.97 µM, the TGI (RXF 393 renal) was 16.2 µM and the TGI (SNB-19 CNS) was 55.5 µM. It also gave a TGI (T-47D breast) of 50.3 µM.

`Clc1ccc(CCNC2(c3cc4ccccc4s3)CCCCC2)cc1Cl` was tested, and the TGI (A549 NSCLC) was > 100 µM, the TGI (EKVX NSCLC) was 81.3 µM and the TGI (HCT-15 colon) was 37.7 µM. The TGI (K-562 leukemia) was 36.7 µM, the TGI (MDA-MB-435) was > 100 µM and the TGI (NCI-H23 lung) was > 100 µM. The TGI (NCI-H522 lung) was 43.9 µM, the TGI (RXF 393 renal) was 36.7 µM and the TGI (SNB-19 CNS) was > 100 µM. It also gave a TGI (T-47D breast) of 46 µM.

`COC(=O)c1c(O)ccc2c1c1cc3ccccc3cc1n2Cc1cc(OC)cc(OC)c1` was tested, and the TGI (A549 NSCLC) was > 100 µM, the TGI (EKVX NSCLC) was > 100 µM and the TGI (HCT-15 colon) was > 100 µM. For the same compound, the TGI (K-562 leukemia) was > 100 µM, the TGI (MDA-MB-435) was 1.86 µM and the TGI (NCI-H23 lung) was > 100 µM. The TGI (NCI-H522 lung) was 0.415 µM, the TGI (RXF 393 renal) was > 26.5 µM and the TGI (SNB-19 CNS) was > 100 µM. The TGI (T-47D breast) was > 63.4 µM.

In the case of `CC(=O)C1=C(C)O[C@@H]2O[C@H](COCc3ccccc3)[C@@H](OCc3ccccc3)[C@H](O)[C@@H]2S1`, the TGI (A549 NSCLC) is reported as > 100 µM, the TGI (EKVX NSCLC) is reported as 82.8 µM and the TGI (HCT-15 colon) is reported as 71.6 µM. The TGI (K-562 leukemia) was 50.3 µM, the TGI (MDA-MB-435) was 38 µM and the TGI (NCI-H23 lung) was 59.9 µM. The TGI (NCI-H522 lung) was 30.9 µM, the TGI (RXF 393 renal) was 47.7 µM and the TGI (SNB-19 CNS) was > 100 µM. The TGI (T-47D breast) was 21.5 µM.

`O=C1/C(=C/c2ccc(O)cc2)CCCC1CN1CCCCC1` (stereo not given) gave a TGI (A549 NSCLC) of 31.9 µM, a TGI (EKVX NSCLC) of 7.8 µM and a TGI (HCT-15 colon) of 2.71 µM. The TGI (K-562 leukemia) was > 24.4 µM, the TGI (MDA-MB-435) was 21.3 µM and the TGI (NCI-H23 lung) was 11.8 µM. The TGI (NCI-H522 lung) was 2.79 µM, the TGI (RXF 393 renal) was 27.1 µM and the TGI (SNB-19 CNS) was 31.8 µM. It also gave a TGI (T-47D breast) of 5.21 µM.

For `COC(=O)C(Cc1ccccc1)NC(=O)C(CS)NC(=O)OC(C)(C)C` (stereo not drawn) (Boc-Cys-Phe-OMe; configuration not given here), the TGI (A549 NSCLC) was > 100 µM, the TGI (EKVX NSCLC) was > 100 µM and the TGI (HCT-15 colon) was > 100 µM. The TGI (K-562 leukemia) was > 100 µM, the TGI (MDA-MB-435) was > 100 µM and the TGI (NCI-H23 lung) was > 100 µM. For the same compound, the TGI (NCI-H522 lung) was > 100 µM, the TGI (RXF 393 renal) was > 100 µM and the TGI (SNB-19 CNS) was > 100 µM. For the same compound, the TGI (T-47D breast) was > 100 µM.

`O=C(CCBr)N1CCN(C(=O)CCBr)CC1` showed a TGI (A549 NSCLC) of 140 µM, a TGI (EKVX NSCLC) of 212 µM and a TGI (HCT-15 colon) of 222 µM. For the same compound, the TGI (K-562 leukemia) was 459 µM, the TGI (MDA-MB-435) was 245 µM and the TGI (NCI-H23 lung) was 150 µM. It also gave a TGI (NCI-H522 lung) of 146 µM, a TGI (RXF 393 renal) of 150 µM and a TGI (SNB-19 CNS) of 198 µM. For the same compound, the TGI (T-47D breast) was 232 µM.

For `N=C(N)NCCCC(NC(=O)C1CC2CCCCC2N1C(=O)[C@H](NC(=O)C(CO)NC(=O)C(NC(=O)CNC(=O)[C@@H]1C[C@@H](O)CN1C(=O)C1CCCN1C(=O)C(CCCNC(=N)N)NC(=O)[C@@H](CCCNC(=N)N)NC(=N)CCCCCCC(=N)N[C@H](CCCNC(=N)N)C(=O)NC(CCCNC(=N)N)C(=O)N1CCCC1C(=O)N1C[C@H](O)C[C@H]1C(=O)NCC(=O)NC(C(=O)NC(CO)C(=O)N[C@@H](C(=O)N1C(C(=O)NC(CCCNC(=N)N)C(=O)O)CC2CCCCC21)C1Cc2ccccc2C1)C1Cc2ccccc2C1)C1Cc2ccccc2C1)C1Cc2ccccc2C1)C(=O)O` (stereo not given in full) (I: [ξR][ξP][Hyp]G[ξIgl][ξS][dIgl][ξOic][ξR]-OH / II: [ξR][ξP][Hyp]G[ξIgl][ξS][dIgl][ξOic][ξR]-OH; linker I:N-II:N via X54), the TGI (A549 NSCLC) was > 10 µM, the TGI (EKVX NSCLC) was 3.67 µM and the TGI (HCT-15 colon) was 4.64 µM. For the same compound, the TGI (K-562 leukemia) was 4.03 µM, the TGI (MDA-MB-435) was 4.18 µM and the TGI (NCI-H23 lung) was 4.17 µM. The TGI (NCI-H522 lung) was > 10 µM, the TGI (RXF 393 renal) was 3.02 µM and the TGI (SNB-19 CNS) was 5.49 µM. For the same compound, the TGI (T-47D breast) was 4.42 µM.

`CN(C)CN1CSC(=S)N(CN(C)C)C1` was tested, and the TGI (A549 NSCLC) was > 100 µM, the TGI (EKVX NSCLC) was > 100 µM and the TGI (HCT-15 colon) was > 100 µM. The TGI (K-562 leukemia) was > 100 µM, the TGI (MDA-MB-435) was > 100 µM and the TGI (NCI-H23 lung) was > 100 µM. The TGI (NCI-H522 lung) was > 100 µM, the TGI (RXF 393 renal) was > 100 µM and the TGI (SNB-19 CNS) was > 100 µM. The TGI (T-47D breast) was > 100 µM.

With `CCOP(=O)(CCCC(O)CNc1nc(N)nc(Cl)c1N=Nc1ccc(Cl)cc1)OCC` (stereo not given) the TGI (A549 NSCLC) was 23.9 µM, the TGI (EKVX NSCLC) was 15.5 µM and the TGI (HCT-15 colon) was 20.2 µM. It also gave a TGI (K-562 leukemia) of 16 µM, a TGI (MDA-MB-435) of 19 µM and a TGI (NCI-H23 lung) of 28 µM. For the same compound, the TGI (NCI-H522 lung) was 17 µM, the TGI (RXF 393 renal) was 18.5 µM and the TGI (SNB-19 CNS) was 22.8 µM. For the same compound, the TGI (T-47D breast) was 23.2 µM.

For `Clc1cc(-c2ccccc2)nc(Nc2nc3ccccc3[nH]2)n1`, the TGI (A549 NSCLC) was > 100 µM, the TGI (EKVX NSCLC) was 49.5 µM and the TGI (HCT-15 colon) was 22 µM. The TGI (K-562 leukemia) was 85.3 µM, the TGI (MDA-MB-435) was 83.4 µM and the TGI (NCI-H23 lung) was 56 µM. For the same compound, the TGI (NCI-H522 lung) was 33.1 µM, the TGI (RXF 393 renal) was 19.1 µM and the TGI (SNB-19 CNS) was > 100 µM. The TGI (T-47D breast) was > 100 µM.
